Laboratory results reported in ChEMBL document CHEMBL3407397, “Effect of size and N-terminal residue characteristics on bacterial cell penetration and antibacterial activity of the proline-rich peptide Bac7” (J Med Chem, 2015).
Converted amounts (≈) assume the structure as drawn. The source made the active and inactive calls. No cut-off for these calls is given here. Non-standard residues stand in square brackets, D forms with d. Residues, ends and D or L forms follow the SMILES beside them. *: point of attachment. Arg(NO2) = N=C(NCCC[C@H](N)C(=O)O)N[N+](=O)[O-]; Gly(N-(CH2)3-guanidino) = N=C(N)NCCCNCC(=O)O; Arg(Me2a) = CN(C)C(=N)NCCC[C@H](N)C(=O)O; X1 = F[B-]1(F)n2c(ccc2*)C=C2C=CC=[N+]21

Key:
Escherichia coli [1] = assay: Antimicrobial activity against delta-waaG deletion mutant containing Escherichia coli BW25113 incubated for 18 hrs at 37 degC by broth microdilution method; format: functional; settings: BW25113, 18 h
Escherichia coli [2] = assay: Antimicrobial activity against O-antigen lacking LPS containing wild type Escherichia coli BW25113 incubated for 18 hrs at 37 degC by broth microdilution method; format: functional; settings: BW25113, 18 h
Escherichia coli [3] = assay: Antimicrobial activity against delta-sbmA deletion mutant containing Escherichia coli BW25113 incubated for 18 hrs at 37 degC by broth microdilution method; format: functional; settings: BW25113, 18 h
Escherichia coli [4] = assay: Antimicrobial activity against Escherichia coli ATCC 25922 incubated for 18 hrs at 37 degC by broth microdilution method; format: functional; settings: ATCC 25922, 18 h
Escherichia coli [5] = assay: Antimicrobial activity against Escherichia coli HB101 incubated for 18 hrs at 37 degC by broth microdilution method; format: functional; settings: HB101, 18 h
Escherichia coli [6] = assay: Drug uptake in Escherichia coli ATCC 25922 assessed as mean fluorescence intensity using BODIPY-labeled compound at 0.25 to 4 uM incubated for 60 mins by flow cytometry; format: ADME, organism-based; settings: in vivo, 1 h
Escherichia coli [7] = assay: Drug uptake in Escherichia coli ATCC 25922 assessed as mean fluorescence intensity using BODIPY-labeled compound at 0.25 to 4 uM incubated for 10 mins in presence of trypan blue quencher by flow cytometry; format: ADME, organism-based; settings: in vivo
Escherichia coli [8] = assay: Drug uptake in Escherichia coli ATCC 25922 assessed as mean fluorescence intensity using BODIPY-labeled compound at 0.25 to 4 uM incubated for 10 mins by flow cytometry; format: ADME, organism-based; settings: in vivo
Escherichia coli [9] = assay: Drug uptake in Escherichia coli ATCC 25922 assessed as mean fluorescence intensity using BODIPY-labeled compound at 0.25 to 4 uM incubated for 60 mins in presence of trypan blue quencher by flow cytometry; format: ADME, organism-based; settings: in vivo, 1 h
Escherichia coli [10] = assay: Drug uptake in O-antigen lacking LPS containing wild type Escherichia coli BW25113 at 1 uM up to 3.5 hrs in presence of trypan blue quencher; format: ADME, organism-based; settings: in vivo
Escherichia coli [11] = assay: Bacteriostatic activity against O-antigen lacking LPS containing wild type Escherichia coli BW25113 at 4 uM incubated for 3.5 hrs; format: functional, organism-based
Escherichia coli [12] = assay: Bacteriostatic activity against delta-waaG deletion mutant containing wild type Escherichia coli BW25113 at 4 uM incubated for 3.5 hrs; format: functional, organism-based

Row | Compound | MIC (Escherichia coli [1]) [µM] | MIC (Escherichia coli [2]) [µM] | MIC (Escherichia coli [3]) [µM] | MIC (Escherichia coli [4]) [µM] | MIC (Escherichia coli [5]) [µM] | other results
1 | CC[C@H](C)[C@H](NC(=O)[C@@H](CCCNC(=N)N)NC(=O)[C@H](N)CCCNC(=N)N)C(=O)N[C@@H](CCCNC(=N)N)C(=O)N1CCC[C@H]1C(=O)N[C@@H](CCCNC(=N)N)C(=O)N1CCC[C@H]1C(=O)N1CCC[C@H]1C(=O)N[C@@H](CCCNC(=N)N)C(=O)N[C@@H](CC(C)C)C(=O)N1CCC[C@H]1C(=O)N[C@@H](CCCNC(=N)N)C(=O)N1CCC[C@H]1C(=O)N[C@@H](CCCNC(=N)N)C(=O)N1CCC[C@H]1C(=O)N[C@@H](CCCNC(=N)N)C(=O)N1CCC[C@H]1C(=O)N[C@@H](CC(C)C)C(=O)N1CCC[C@H]1C(=O)N[C@@H](Cc1ccc(O)cc1)C(=O)N1CCC[C@H]1C(=O)N[C@@H](CCCNC(=N)N)C(=O)N1CCC[C@H]1C(=O)O | 2 (≈ 5.8 µg/mL) | 4 (≈ 11.6 µg/mL) | 16 (≈ 46.4 µg/mL) | 4 (≈ 11.6 µg/mL) | – | –
2 | CC[C@H](C)[C@H](NC(=O)[C@H](CCCNC(=N)N)NC(=O)[C@@H](N)CCCNC(=N)N)C(=O)N[C@@H](CCCNC(=N)N)C(=O)N1CCC[C@H]1C(=O)N[C@@H](CCCNC(=N)N)C(=O)N1CCC[C@H]1C(=O)N1CCC[C@H]1C(=O)N[C@@H](CCCNC(=N)N)C(=O)N[C@@H](CC(C)C)C(=O)N1CCC[C@H]1C(=O)N[C@@H](CCCNC(=N)N)C(=O)N1CCC[C@H]1C(=O)N[C@@H](CCCNC(=N)N)C(=O)N1CCC[C@H]1C(=O)N[C@@H](CSc1ccc2n1[B-](F)(F)[N+]1=CC=CC1=C2)C(=O)O (H-RRIRPRPPRLPRPRPC(X1)-OH) | – | – | – | 1 (≈ 2.21 µg/mL) | 1 (≈ 2.21 µg/mL) | Drug uptake (Escherichia coli [6]): Not Active; Drug uptake (Escherichia coli [7]): Not Active; Drug uptake (Escherichia coli [8]): Not Active; Drug uptake (Escherichia coli [9]): Not Active
3 | CC[C@H](C)[C@H](NC(=O)[C@H](CCCNC(=N)N)NC(=O)[C@@H](N)CCCNC(=N)N)C(=O)N[C@@H](CCCNC(=N)N)C(=O)N1CCC[C@H]1C(=O)N[C@@H](CCCNC(=N)N)C(=O)N1CCC[C@H]1C(=O)N1CCC[C@H]1C(=O)N[C@@H](CCCNC(=N)N)C(=O)N[C@@H](CC(C)C)C(=O)N1CCC[C@H]1C(=O)N[C@@H](CCCNC(=N)N)C(=O)N1CCC[C@H]1C(=O)N[C@@H](CCCNC(=N)N)C(=O)N1CCC[C@H]1C(=O)N[C@@H](CCCNC(=N)N)C(=O)N[C@@H](CSc1ccc2n1[B-](F)(F)[N+]1=CC=CC1=C2)C(=O)O (H-RRIRPRPPRLPRPRPRC(X1)-OH) | – | – | – | 0.5 (≈ 1.18 µg/mL) | 0.5 (≈ 1.18 µg/mL) | –
4 | CC[C@H](C)[C@H](NC(=O)[C@H](CCCNC(=N)N)NC(=O)[C@@H](N)CCCNC(=N)N)C(=O)N[C@@H](CCCNC(=N)N)C(=O)N1CCC[C@H]1C(=O)N[C@@H](CCCNC(=N)N)C(=O)N1CCC[C@H]1C(=O)N1CCC[C@H]1C(=O)N[C@@H](CCCNC(=N)N)C(=O)N[C@@H](CC(C)C)C(=O)N1CCC[C@H]1C(=O)N[C@@H](CCCNC(=N)N)C(=O)N1CCC[C@H]1C(=O)N[C@@H](CCCNC(=N)N)C(=O)N1CCC[C@H]1C(=O)N[C@@H](CCCNC(=N)N)C(=O)N1CCC[C@H]1C(=O)N[C@@H](CC(C)C)C(=O)N1CCC[C@H]1C(=O)N[C@@H](Cc1ccccc1)C(=O)N1CCC[C@H]1C(=O)N[C@@H](CCCNC(=N)N)C(=O)N1CCC[C@H]1C(=O)N[C@@H](CSc1ccc2n1[B-](F)(F)[N+]1=CC=CC1=C2)C(=O)O (H-RRIRPRPPRLPRPRPRPLPFPRPC(X1)-OH) | – | – | – | – | – | Drug uptake (Escherichia coli [6]): Active; Drug uptake (Escherichia coli [10]): Not Active; Drug uptake (Escherichia coli [7]): Active; Drug uptake (Escherichia coli [8]): Active; Drug uptake (Escherichia coli [9]): Active
5 | CC[C@H](C)[C@H](NC(=O)[C@H](CCCNC(=N)N(C)C)NC(=O)[C@@H](N)CCCNC(=N)N)C(=O)N[C@@H](CCCNC(=N)N)C(=O)N1CCC[C@H]1C(=O)N[C@@H](CCCNC(=N)N)C(=O)N1CCC[C@H]1C(=O)N1CCC[C@H]1C(=O)N[C@@H](CCCNC(=N)N)C(=O)N[C@@H](CC(C)C)C(=O)N1CCC[C@H]1C(=O)N[C@@H](CCCNC(=N)N)C(=O)N1CCC[C@H]1C(=O)N[C@@H](CCCNC(=N)N)C(=O)N1CCC[C@H]1C(=O)N[C@@H](CCCNC(=N)N)C(=O)N1CCC[C@H]1C(=O)N[C@@H](CC(C)C)C(=O)N1CCC[C@H]1C(=O)N[C@@H](Cc1ccc(O)cc1)C(=O)N1CCC[C@H]1C(=O)N[C@@H](CCCNC(=N)N)C(=O)N1CCC[C@H]1C(=O)O (H-R[Arg(Me2a)]IRPRPPRLPRPRPRPLPYPRP-OH) | 1 (≈ 2.93 µg/mL) | 4 (≈ 11.7 µg/mL) | 8 (≈ 23.4 µg/mL) | 4 (≈ 11.7 µg/mL) | – | –
6 | CC[C@H](C)[C@H](NC(=O)[C@H](CCCNC(=N)N)NC(=O)[C@@H](N)CCCNC(=N)N(C)C)C(=O)N[C@@H](CCCNC(=N)N)C(=O)N1CCC[C@H]1C(=O)N[C@@H](CCCNC(=N)N)C(=O)N1CCC[C@H]1C(=O)N1CCC[C@H]1C(=O)N[C@@H](CCCNC(=N)N)C(=O)N[C@@H](CC(C)C)C(=O)N1CCC[C@H]1C(=O)N[C@@H](CCCNC(=N)N)C(=O)N1CCC[C@H]1C(=O)N[C@@H](CCCNC(=N)N)C(=O)N1CCC[C@H]1C(=O)N[C@@H](CCCNC(=N)N)C(=O)N1CCC[C@H]1C(=O)N[C@@H](CC(C)C)C(=O)N1CCC[C@H]1C(=O)N[C@@H](Cc1ccc(O)cc1)C(=O)N1CCC[C@H]1C(=O)N[C@@H](CCCNC(=N)N)C(=O)N1CCC[C@H]1C(=O)O (H-[Arg(Me2a)]RIRPRPPRLPRPRPRPLPYPRP-OH) | 0.5 (≈ 1.46 µg/mL) | 2 (≈ 5.85 µg/mL) | 8 (≈ 23.4 µg/mL) | 2 (≈ 5.85 µg/mL) | – | –
7 | CC[C@H](C)[C@H](NC(=O)[C@H](CCCNC(=N)N(C)C)NC(=O)[C@@H](N)CCCNC(=N)N(C)C)C(=O)N[C@@H](CCCNC(=N)N)C(=O)N1CCC[C@H]1C(=O)N[C@@H](CCCNC(=N)N)C(=O)N1CCC[C@H]1C(=O)N1CCC[C@H]1C(=O)N[C@@H](CCCNC(=N)N)C(=O)N[C@@H](CC(C)C)C(=O)N1CCC[C@H]1C(=O)N[C@@H](CCCNC(=N)N)C(=O)N1CCC[C@H]1C(=O)N[C@@H](CCCNC(=N)N)C(=O)N1CCC[C@H]1C(=O)N[C@@H](CCCNC(=N)N)C(=O)N1CCC[C@H]1C(=O)N[C@@H](CC(C)C)C(=O)N1CCC[C@H]1C(=O)N[C@@H](Cc1ccc(O)cc1)C(=O)N1CCC[C@H]1C(=O)N[C@@H](CCCNC(=N)N)C(=O)N1CCC[C@H]1C(=O)O (H-[Arg(Me2a)][Arg(Me2a)]IRPRPPRLPRPRPRPLPYPRP-OH) | 2 (≈ 5.91 µg/mL) | 8 (≈ 23.6 µg/mL) | 16 (≈ 47.3 µg/mL) | 8 (≈ 23.6 µg/mL) | – | –
8 | CC[C@H](C)[C@H](NC(=O)[C@H](CCCNC(=N)N)NC(=O)[C@@H](N)CCCN/C(N)=N\[N+](=O)[O-])C(=O)N[C@@H](CCCNC(=N)N)C(=O)N1CCC[C@H]1C(=O)N[C@@H](CCCNC(=N)N)C(=O)N1CCC[C@H]1C(=O)N1CCC[C@H]1C(=O)N[C@@H](CCCNC(=N)N)C(=O)N[C@@H](CC(C)C)C(=O)N1CCC[C@H]1C(=O)N[C@@H](CCCNC(=N)N)C(=O)N1CCC[C@H]1C(=O)N[C@@H](CCCNC(=N)N)C(=O)N1CCC[C@H]1C(=O)N[C@@H](CCCNC(=N)N)C(=O)N1CCC[C@H]1C(=O)N[C@@H](CC(C)C)C(=O)N1CCC[C@H]1C(=O)N[C@@H](Cc1ccc(O)cc1)C(=O)N1CCC[C@H]1C(=O)N[C@@H](CCCNC(=N)N)C(=O)N1CCC[C@H]1C(=O)O (H-[Arg(NO2)]RIRPRPPRLPRPRPRPLPYPRP-OH) | 1 (≈ 2.94 µg/mL) | 4 (≈ 11.8 µg/mL) | 8 (≈ 23.5 µg/mL) | 4 (≈ 11.8 µg/mL) | – | –
9 | CC[C@H](C)[C@H](NC(=O)CN(CCCNC(=N)N)C(=O)CNCCCNC(=N)N)C(=O)N[C@@H](CCCNC(=N)N)C(=O)N1CCC[C@H]1C(=O)N[C@@H](CCCNC(=N)N)C(=O)N1CCC[C@H]1C(=O)N1CCC[C@H]1C(=O)N[C@@H](CCCNC(=N)N)C(=O)N[C@@H](CC(C)C)C(=O)N1CCC[C@H]1C(=O)N[C@@H](CCCNC(=N)N)C(=O)N1CCC[C@H]1C(=O)N[C@@H](CCCNC(=N)N)C(=O)N1CCC[C@H]1C(=O)N[C@@H](CCCNC(=N)N)C(=O)N1CCC[C@H]1C(=O)N[C@@H](CC(C)C)C(=O)N1CCC[C@H]1C(=O)N[C@@H](Cc1ccc(O)cc1)C(=O)N1CCC[C@H]1C(=O)N[C@@H](CCCNC(=N)N)C(=O)N1CCC[C@H]1C(=O)O (H-[Gly(N-(CH2)3-guanidino)][Gly(N-(CH2)3-guanidino)]IRPRPPRLPRPRPRPLPYPRP-OH) | 0.5 (≈ 1.45 µg/mL) | 0.5 (≈ 1.45 µg/mL) | 8 (≈ 23.2 µg/mL) | 1 (≈ 2.9 µg/mL) | – | –
10 | H-IRPRPPRLPRPRPRPLPYPRP-OH | 4 | 8 | 32 | 8 | – | Activity (Escherichia coli [11]): Active; Activity (Escherichia coli [12]): Active
11 | H-KKIRPRPPRLPRPRPRPLPYPRP-OH | 2 | 4 | 16 | 4 | – | –
12 | H-RRIRPRPPRLPRP-OH | – | – | – | > 128 | 64 | –
13 | H-RRIRPRPPRLPRPC-OH | – | – | – | > 128 | 128 | –
14 | H-RRIRPRPPRLPRPRP-OH | – | – | – | 32 | 16 | –
15 | H-RRIRPRPPRLPRPRPC-OH | – | – | – | 8 | 8 | –
16 | H-RRIRPRPPRLPRPRPR-OH | – | – | – | 0.5 | 0.5 | –
